Measurements from the NIST ThermoML archive (doi:10.1016/j.fluid.2004.09.013).
Numbers after ± are expanded uncertainties.

Conditions: for mass density: Fluid (supercritical or subcritical phases), Vibrating tube method; for vapor or sublimation pressure: Liquid

C/C=C\C [(Z)-2-butene]
Conditions	mass density [kg/m3]
333.22 K, 14991 kPa	598.72 ± 1.3
333.22 K, 19994 kPa	606.12 ± 1.3
333.22 K, 24988 kPa	612.8 ± 1.3
333.22 K, 30003 kPa	618.94 ± 1.4
333.22 K, 34991 kPa	624.59 ± 1.4
333.22 K, 40010 kPa	629.87 ± 1.4
338.22 K, 1174 kPa	565.5 ± 1.1
338.22 K, 4996 kPa	574.54 ± 1.2
338.22 K, 9996 kPa	584.64 ± 1.2
338.22 K, 14984 kPa	593.34 ± 1.2
338.22 K, 19986 kPa	601.06 ± 1.3
338.22 K, 25003 kPa	608.03 ± 1.3
338.22 K, 29995 kPa	614.37 ± 1.4
338.22 K, 34988 kPa	620.2 ± 1.4
338.22 K, 39995 kPa	625.64 ± 1.4
343.22 K, 1261 kPa	558.56 ± 1.1
343.22 K, 4987 kPa	568.03 ± 1.2
343.22 K, 9997 kPa	578.77 ± 1.2
343.22 K, 14987 kPa	587.91 ± 1.2
343.22 K, 19988 kPa	595.98 ± 1.3
343.22 K, 25014 kPa	603.24 ± 1.3
343.22 K, 30005 kPa	609.78 ± 1.4
343.22 K, 34992 kPa	615.82 ± 1.4
343.22 K, 40014 kPa	621.42 ± 1.4
348.22 K, 1356 kPa	551.46 ± 1.1
348.22 K, 4981 kPa	561.37 ± 1.2
348.22 K, 10002 kPa	572.81 ± 1.2
348.22 K, 14996 kPa	582.44 ± 1.2
348.22 K, 19993 kPa	590.86 ± 1.3
348.22 K, 25004 kPa	598.39 ± 1.3
348.22 K, 30012 kPa	605.19 ± 1.4
348.22 K, 34983 kPa	611.41 ± 1.4
348.22 K, 39993 kPa	617.18 ± 1.4
353.22 K, 1456 kPa	544.16 ± 1.1
353.22 K, 5002 kPa	554.62 ± 1.1
353.22 K, 14994 kPa	576.89 ± 1.2
353.22 K, 19998 kPa	585.7 ± 1.3
353.22 K, 24991 kPa	593.51 ± 1.3
353.22 K, 29987 kPa	600.55 ± 1.3
353.22 K, 34994 kPa	606.99 ± 1.4
353.22 K, 40002 kPa	612.94 ± 1.4
353.23 K, 10003 kPa	566.75 ± 1.2
358.22 K, 1569 kPa	536.68 ± 1.1
358.22 K, 4987 kPa	547.6 ± 1.1
358.22 K, 9992 kPa	560.57 ± 1.2
358.22 K, 15002 kPa	571.3 ± 1.2
358.22 K, 19998 kPa	580.5 ± 1.3
358.22 K, 24995 kPa	588.63 ± 1.3
358.22 K, 29992 kPa	595.93 ± 1.3
358.22 K, 34990 kPa	602.57 ± 1.4
358.22 K, 40000 kPa	608.7 ± 1.4
363.23 K, 1690 kPa	528.95 ± 1.1
363.23 K, 4993 kPa	540.42 ± 1.1
363.23 K, 9989 kPa	554.28 ± 1.2
363.23 K, 15000 kPa	565.61 ± 1.2
363.23 K, 19996 kPa	575.23 ± 1.2
363.23 K, 25014 kPa	583.72 ± 1.3
363.23 K, 29996 kPa	591.25 ± 1.3
363.23 K, 34991 kPa	598.13 ± 1.4
363.23 K, 40007 kPa	604.46 ± 1.4
368.22 K, 1794 kPa	520.86 ± 1.1
368.22 K, 4994 kPa	533.05 ± 1.1
368.22 K, 9998 kPa	547.94 ± 1.1
368.22 K, 15001 kPa	559.86 ± 1.2
368.22 K, 20006 kPa	569.97 ± 1.2
368.22 K, 24996 kPa	578.78 ± 1.3
368.22 K, 30000 kPa	586.63 ± 1.3
368.23 K, 35006 kPa	593.73 ± 1.4
368.23 K, 40001 kPa	600.21 ± 1.4
373.23 K, 1956 kPa	512.69 ± 1.1
373.23 K, 5016 kPa	525.44 ± 1.1
373.23 K, 10014 kPa	541.44 ± 1.1
373.23 K, 15017 kPa	554.07 ± 1.2
373.23 K, 20017 kPa	564.64 ± 1.2
373.23 K, 25015 kPa	573.81 ± 1.3
373.23 K, 30004 kPa	581.92 ± 1.3
373.23 K, 35002 kPa	589.24 ± 1.4
373.23 K, 39988 kPa	595.91 ± 1.4
378.23 K, 2103 kPa	504.11 ± 1
378.23 K, 5016 kPa	517.48 ± 1.1
378.23 K, 9997 kPa	534.7 ± 1.1
378.23 K, 15005 kPa	548.12 ± 1.2
378.23 K, 19992 kPa	559.18 ± 1.2
378.23 K, 24999 kPa	568.75 ± 1.3
378.23 K, 29991 kPa	577.18 ± 1.3
378.23 K, 34989 kPa	584.74 ± 1.4
378.23 K, 39985 kPa	591.64 ± 1.4
383.23 K, 2265 kPa	495.17 ± 1
383.23 K, 4994 kPa	509.13 ± 1.1
383.23 K, 9994 kPa	527.89 ± 1.1
383.23 K, 15008 kPa	542.15 ± 1.2
383.23 K, 20012 kPa	553.81 ± 1.2
383.23 K, 24996 kPa	563.74 ± 1.3
383.23 K, 29984 kPa	572.46 ± 1.3
383.23 K, 34981 kPa	580.28 ± 1.4
383.23 K, 40007 kPa	587.41 ± 1.4
388.23 K, 2438 kPa	485.86 ± 1
388.23 K, 4986 kPa	500.47 ± 1.1
388.23 K, 9987 kPa	520.91 ± 1.1
388.23 K, 14983 kPa	536.02 ± 1.2
388.23 K, 19990 kPa	548.28 ± 1.2
388.23 K, 24990 kPa	558.67 ± 1.3
388.23 K, 30000 kPa	567.77 ± 1.3
388.23 K, 34996 kPa	575.85 ± 1.4
388.23 K, 39999 kPa	583.17 ± 1.4
393.23 K, 2620 kPa	476.09 ± 0.99
393.23 K, 4998 kPa	491.49 ± 1

Conditions	vapor or sublimation pressure [kPa]
335.93 K	625.67 ± 4.1
344.91 K	767.01 ± 5.7
345.17 K	778.59 ± 5.8
353.84 K	949.22 ± 6.1
364.75 K	1196.6 ± 7.6
367.83 K	1274.3 ± 8.2
376.36 K	1508.8 ± 9.6
380.95 K	1643.2 ± 10
382.47 K	1703.7 ± 11
390.94 K	1988 ± 13
